In patent US20180303101A1, “METHOD OF IMPROVING GRASS QUALITY” (priority 2004, published 2018):

Tests used:
Format in all cases: in vivo
[1] = tested on: Penncross creeping bentgrass; experiment: Canopy photochemical efficiency (Fv/Fm) at high temperature treatment (Example 1); conditions: plants with and without pretreatment
Text: (§1) The following test methods were used to compare the effectiveness of a phthalocyanine composition according to the invention with known compositions. The following compositions were used in the experiments: Pigment Green 7 obtained from Sun Chemical Corporation as the water-dispersible product SUN T-64-1660 (containing 45 to 55 wt. % of Pigment Green 7) was used alone. A mixture of Pigment Green 7 and fosetyl-al was used as the commercially available product Chipco® Signature™ fungicide from Bayer Environmental Science, Montvale, N.J. The compound fosetyl-al was used as Chipco® Aliette® WDG fungicide available from Bayer Environmental Science, Montvale N.J.
(§2) Seeds of “Penncross” creeping bentgrass were sown in polyvinyl chloride (PVC) tubes (10 cm in diameter and 20 cm in length) filled with coarse sand. […]
(§3) Chlorophyll and carotenoids were extracted by soaking 50 mg fresh shoots in 20 ml dimethyl sulfoxide (DMSO) in the dark for 72 hours. Absorbance of each extractant at 663 nm, 645 nm, and 470 nm was used to determine chlorophyll content using the formula of Arnon (1949) and carotenoids content using the formula of Lichtenthaler and Wellburn (1983) Canopy photochemical efficiency was estimated by measuring chlorophyll fluorescence (Fv/Fm) using plant photosynthesis efficiency analyzer (available from ADC Bioscientific Limited, Herts, England).

[2] = tested on: Penncross creeping bentgrass; experiment: Carotenoids content at high temperature treatment (Example 1); conditions: plants with or without pretreatment
Text: as §1, §2, §3

[3] = tested on: Penncross creeping bentgrass; experiment: Tiller density at high temperature treatment (Example 1)
Text: as §1
Seeds of “Penncross” creeping bentgrass were sown in polyvinyl chloride (PVC) tubes (10 cm in diameter and 20 cm in length) filled with coarse sand. Plants were kept in a growth chamber for 90 days before treatment stated to allow root and canopy establishment. The daily temperature in the growth chamber was 20/16° C., the photosynthetic photon flux density was 400 μmol m−2 s−1, and the photoperiod was 12 hours/day. Turf was mowed twice weekly at 4 mm with scissors, irrigated every other day until there was free drainage from the bottom of tubes, and fertilized weekly with 40 ml full-strength Hoagland's nutrient solution (Hoagland and Arnon, 1950). Insecticide was applied to kill whitefly when necessary. […]

Corn = experiment: Glasshouse study, soil drench applications of pigment on corn growth and photosynthesis (Example 10); conditions: for Chlorophyl: CM1000 meter readings; for Total height (avg, cm): soil to youngest fully expanded leaf tip; for Distance between collars (avg, cm): two top collars; for Net photosynthesis: youngest fully collared leaf
Procedure: A glasshouse study was conducted to determine the effect of soil drench applications of phthalocyanine pigment on corn growth and photosynthesis.
Corn was grown from seed in 6 inch (15 cm) pots in a potting soil mix. Pigment Green 7 was diluted in water in the four amounts per gallon (3.8 liter) of water indicated in the Table and applied directly to the soil. Treatments were initiated in March when corn was at the three leaf stage. Approximately 250 ml of the aqueous pigment mixture was applied to the soil on day 0 and day 6. On day 21 plants were placed in trays containing the pigment Water was maintained in the trays as needed to replenished evapotranspiration.
Net photosynthesis of the youngest fully collared leaf (i.e., leaf 7) was measured using a LiCor 6400 instrument as μmol m−2s−1 of CO2. Leaf chlorophyll measurements were made using a CM1000 leaf […] meter (Spectrum Technologies). Plant height, stem diameter, and leaf width were also measured at the end of the conclusion of the study.

[4] = tested on: creeping bentgrass (variety Penncross) turf; experiment: Bentgrass color rating after foliar spray (Example 4); conditions: 6 weeks after treatment; iprodione 4 oz/1000 sq. ft.; Pigment Green 7 6.8 or 13.6 g/1000 sq. ft. in combination, 13.6 g alone
Text: Pigment Green 7 was suspended in water and applied as a foliar spray to creeping bentgrass (variety Penncross) turf with a pressurized sprayer at a spray volume of 1.37 gallons of water per 1000 sq. ft. (ca. 560 l/ha). Pigment Green 7 was applied at rates of 6.8, 13.9, and 20.4 grams per 1000 sq. ft. (0.73, 1.5, and 2.2 kg/ha, respectively). Each treatment was replicated 4 times. An untreated plot was included and was also replicated four times. The average color of the bentgrass was visually evaluated at 6 weeks after treatment. Color was evaluated on a qualitative scale from 1-9, with 9 being the highest quality and 1 the lowest quality.
The procedure of Example 2 was repeated using iprodione fungicide (in the form of 26 GT brand iprodione fungicide) at 4 oz/1000 sq. ft. (ca. 1.3 mL/m2), iprodione at 4 oz/1000 sq. ft. (ca. 1.3 mL/m2) plus Pigment Green 7 at 6.8 g/1000 sq. ft. (0.73 kg/ha), iprodione at 4 oz/1000 sq. ft. plus Pigment Green 7 at 13.6 g/1000 sq. ft. (1.5 kg/ha), and Pigment Green 7 at 13.6 g/1000 sq. ft. (1.5 kg/ha). At 6 weeks after treatment, the color ratings were as follows.

[5] = tested on: Penncross creeping bentgrass; experiment: Chlorophyll content at high temperature treatment (Example 1)
Text: as §1, §2, §3

Q: With Pigment Green 7 as the substance, how does the “Photochemical efficiency (Fv/Fm)” value [1] read?
A: The value was “highest”.

Q: And the Carotenoids content [2]?
A: The Carotenoids content was “higher with application of Signature fungicide and Pigment Green 7 than with application of Aliette fungicide and water”.

Q: What about the “Tiller density, difference among applications” value [3] of the same substance?
A: Its value is “no significant difference”.

Q: And the “Height soil to collar (avg, cm)” value (Corn; pigment concentration 1 g/gal)?
A: The value was 58 cm.

Q: What about the “Leaf width (avg, cm)” value (Corn; pigment concentration 1 g/gal) of the same substance?
A: Its value is 5.2 cm.

Q: And the “Stem diameter (avg, cm)” value (Corn; pigment concentration 1 g/gal)?
A: The value was 1.04 cm.

Q: What about the Chlorophyl (Corn; pigment concentration 1 g/gal) of the same substance?
A: Its Chlorophyl is 141.

Q: What about the “Total height (avg, cm)” value (Corn; pigment concentration 1 g/gal) of the same substance?
A: Its value is 145 cm.

Q: What about the “Distance between collars (avg, cm)” value (Corn; pigment concentration 1 g/gal) of the same substance?
A: The value was 4.9 cm.

Q: What about the Net photosynthesis (Corn; pigment concentration 1 g/gal) of the same substance?
A: The Net photosynthesis was 13.0 μmol m−2s−1 of CO2.

Q: What about the “Height soil to collar (avg, cm)” value (Corn; pigment concentration 8 g/gal) of the same substance?
A: The value was 59 cm.

Q: What about the “Leaf width (avg, cm)” value (Corn; pigment concentration 8 g/gal) of the same substance?
A: Its value is 5.6 cm.

Q: What about the “Stem diameter (avg, cm)” value (Corn; pigment concentration 8 g/gal) of the same substance?
A: Its value is 0.99 cm.

Q: And the Chlorophyl (Corn; pigment concentration 8 g/gal)?
A: Its Chlorophyl is 122.

Q: What about the “Total height (avg, cm)” value (Corn; pigment concentration 8 g/gal) of the same substance?
A: Its value is 148 cm.

Q: What about the “Distance between collars (avg, cm)” value (Corn; pigment concentration 8 g/gal) of the same substance?
A: The value was 5.5 cm.

Q: And the Net photosynthesis (Corn; pigment concentration 8 g/gal)?
A: Its Net photosynthesis is 12.8 μmol m−2s−1 of CO2.

Q: And the “Height soil to collar (avg, cm)” value (Corn; pigment concentration 16 g/gal)?
A: The value was 55 cm.

Q: What about the “Leaf width (avg, cm)” value (Corn; pigment concentration 16 g/gal) of the same substance?
A: Its value is 5.2 cm.

Q: What about the “Stem diameter (avg, cm)” value (Corn; pigment concentration 16 g/gal) of the same substance?
A: Its value is 1.01 cm.

Q: And the Chlorophyl (Corn; pigment concentration 16 g/gal)?
A: The Chlorophyl was 115.

Q: And the “Total height (avg, cm)” value (Corn; pigment concentration 16 g/gal)?
A: The value was 137 cm.

Q: And the “Distance between collars (avg, cm)” value (Corn; pigment concentration 16 g/gal)?
A: The value was 5.7 cm.

Q: And the Net photosynthesis (Corn; pigment concentration 16 g/gal)?
A: Its Net photosynthesis is 13.6 μmol m−2s−1 of CO2.

Q: What about the “Height soil to collar (avg, cm)” value (Corn; pigment concentration 32 g/gal) of the same substance?
A: The value was 54 cm.

Q: And the “Leaf width (avg, cm)” value (Corn; pigment concentration 32 g/gal)?
A: The value was 5.6 cm.

Q: What about the “Stem diameter (avg, cm)” value (Corn; pigment concentration 32 g/gal) of the same substance?
A: Its value is 1.00 cm.

Q: What about the Chlorophyl (Corn; pigment concentration 32 g/gal) of the same substance?
A: The Chlorophyl was 132.

Q: And the “Total height (avg, cm)” value (Corn; pigment concentration 32 g/gal)?
A: The value was 132 cm.

Q: And the “Distance between collars (avg, cm)” value (Corn; pigment concentration 32 g/gal)?
A: The value was 6.0 cm.

Q: And the Net photosynthesis (Corn; pigment concentration 32 g/gal)?
A: The Net photosynthesis was 13.3 μmol m−2s−1 of CO2.

Q: And the “Color rating versus untreated check” value [4]?
A: The value was “significantly greener than the untreated”.

Q: And the “Chlorophyll content (fresh weight basis)” value ([5]; plants with pretreatment)?
A: Its value is “highest”.

Q: And the “Chlorophyll content (fresh weight basis)” value ([5]; plants without pretreatment)?
A: The value was “higher with application of Signature fungicide and Pigment Green 7 than with application of Aliette fungicide”.
